“Also recorded” adds a separate entry of the source. Like-named read-outs stand apart in the source and are kept apart here.
Assays:
Caco-2 cells = conditions: 4 h
DPP-IV [1] = molecular target: T1, DPP-IV (Homo sapiens, UniProt P27487); type: cell-based
T1 construct: host or cells: Caco-2 cells

[2] = In vitro simulated gastrointestinal digestion of goat milk; type: in vitro ADME; conditions: in vitro gastric (pepsin, pH 2.0, 60 min) then intestinal digestion (pH 7.0), 30 min, LC-MS/MS
Procedure: Goat milk was subjected to simulated gastrointestinal digestion according to the in vitro digestion protocol described by Xue et al.. Artificial gastric fluid from goat milk was mixed in a 1:1 ratio, followed by the addition of 120 μL CaCl2(H2O)2. The pH of the resulting solution was adjusted to 2.0 using HCl. The solution was then divided into centrifuge tubes, with each tube containing 20 mL of the solution. The tubes were placed in a water bath (FYDKH3, Shanghai Hengyi Scientific Instrument Co., Shanghai, China) and subjected to shock for five min for pre-heating. Subsequently, pepsin was added and dissolved in simulated gastric fluid (SGF). After preheating, 1 mL enzyme solution was added to each tube to initiate the in vitro digestion process. Digestion time intervals were established at 0, 10, 30, 60, 90, and 120 min. Additionally, the pH of the digestion solution was adjusted to 8.0, using NaOH solution to deactivate the enzyme following digestion. After gastric digestion for 60 min followed by enzyme inactivation, an artificial intestinal solution was added at a ratio of 1:1. The subsequent experimental procedures were identical to those previously described. The pH of the solution was adjusted to 7.0. Digestion time intervals were set at 0, 0.5, 5, 10, 30, and 60 min. […]
LC-MS/MS was determined as described by Sun et al.. […]

DPP-IV [3] = conditions: MBPDB database assignment, cited from earlier work
Excerpt: Among them, the DPP-IV inhibitory peptide fragment derived from milk serum albumin may be rapidly degraded in vivo due to low structural stability, leading to loss of activity.

DPP-IV [4] = conditions: ref [32], cited from earlier work
Excerpt: In the process of in vitro digestion, potential active peptide fragments harboring in food proteins may be degraded by digestive enzymes, but the peptide fragment selected in this study still has DPP-IV inhibitory activity after digestion, which is a digestion-resistant peptide fragment with a molecular weight of about 1kDa. Some reported that DPP-IV inhibitory peptides tend to be active peptides with 2–8 amino acid residues and a molecular weight of less than 1 kDa. The DPP-IV inhibition and metabolic stability of casein-derived peptide Val-Pro-Tyr-Pro-Gln (VPYPQ) and its fragments, an ...

[5] = ref [23] in Table 1 for VGINYWLAHK and ILDKVGINYWLAHK

T1 sequence (P27487 whole entry): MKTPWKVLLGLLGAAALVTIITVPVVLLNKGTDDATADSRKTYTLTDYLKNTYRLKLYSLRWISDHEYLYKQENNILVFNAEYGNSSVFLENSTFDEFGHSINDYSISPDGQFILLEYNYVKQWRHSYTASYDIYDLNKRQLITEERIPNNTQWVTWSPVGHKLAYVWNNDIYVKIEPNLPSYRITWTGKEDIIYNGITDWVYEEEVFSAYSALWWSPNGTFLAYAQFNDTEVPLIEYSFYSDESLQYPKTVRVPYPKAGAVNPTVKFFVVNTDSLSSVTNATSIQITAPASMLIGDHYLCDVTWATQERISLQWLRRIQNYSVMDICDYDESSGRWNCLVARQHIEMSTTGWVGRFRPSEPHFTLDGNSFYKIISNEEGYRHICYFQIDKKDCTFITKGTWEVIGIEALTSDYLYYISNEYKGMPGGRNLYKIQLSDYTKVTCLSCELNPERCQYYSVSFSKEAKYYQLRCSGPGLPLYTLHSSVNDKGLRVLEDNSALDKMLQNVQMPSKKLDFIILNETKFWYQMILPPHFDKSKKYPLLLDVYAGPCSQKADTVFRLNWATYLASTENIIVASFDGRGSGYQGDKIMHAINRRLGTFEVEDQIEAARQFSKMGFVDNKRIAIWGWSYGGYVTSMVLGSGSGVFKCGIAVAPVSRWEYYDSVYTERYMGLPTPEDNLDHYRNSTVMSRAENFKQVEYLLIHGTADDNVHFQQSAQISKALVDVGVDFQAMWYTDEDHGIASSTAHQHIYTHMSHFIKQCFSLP

Substance | cellular activity (cell viability) (Caco-2 cells; 0.5 mg/mL) [%] | cellular activity (cell viability) (Caco-2 cells; 1 mg/mL) [%] | DPP-IV inhibition rate (DPP-IV [1]) [%] | DPP-IV inhibitory effect, in words (DPP-IV [1]) | DPP-IV inhibitory activity, in words (DPP-IV [3]; [5]) | also measured
H-IIDKVGINY-OH [II] | 90.34 ± 2.08 | 85.51 ± 3.52 | 79.20 ± 2.20 | significant enhancement of DPP-IV inhibitory activity; also recorded: strongest; also recorded: increased the hydrophobic force and inhibitory activity | – | –
H-ILDKVGINY-OH [IL] | 91.91 ± 5.763 | 86 ± 3.911 | 73.44 ± 2.23 | – | – | resistance to digestion / activity after digestion, in words [2]: high in content and resistance to digestion; resistance to digestion / activity after digestion, in words ([2]; listed as ILDKVGINY): retaining its activity following digestion; DPP-IV inhibitory activity, in words (DPP-IV [3]; ref [23] in Table 1 for […] and […]): displayed DPP-IV inhibitory activity
H-IPDKVGINY-OH [IP] | 91.88 ± 5.385 | 84.46 ± 2.928 | 60.37 ± 3.04 | weakest; also recorded: lower inhibition rate | – | –
ILDKVGINYWLAHK | – | – | – | – | displayed DPP-IV inhibitory activity | –
VGINYWLAHK | – | – | – | – | displayed DPP-IV inhibitory activity | –
Val-Pro-Tyr-Pro-Gln [VPYPQ, casein-derived peptide] | – | – | – | – | – | DPP-IV inhibitory activity, in words (DPP-IV [4]; among VPYPQ and its fragments): strongest DPP-IV inhibitory peptide; IC50 (DPP-IV [4]; casein-derived peptide, read-out: IC50 of DPP-IV inhibition): 41.5 µM

— article PMC11395612, “DPP-IV Inhibitory Peptide against In Vitro Gastrointestinal Digestion Derived from Goat’s Milk Protein and Its Activity Enhancement via Amino Acid Substitution” (Foods, 2024)
